According to ChEMBL document CHEMBL1151188, “Cytotoxic withaphysalins from the leaves of Acnistus arborescens” (2004):
Values after ≈ are worked out from the molar mass of the structure shown.

Columns and labels:
Assay type in all cases: functional
Conditions in all cases: read-out: ED50 (the source's name)
Lu1 = assay: Cytotoxicity against human Lu1 cells
LNCaP = assay: Cytotoxicity against human LNCAP cells
MCF7 = assay: Cytotoxicity against human MCF7 cells

Row | Structure (SMILES) | EC50 (Lu1) [µg/mL] | EC50 (LNCaP) [µg/mL] | EC50 (MCF7) [µg/mL]
1 | CC1=C(C)C(=O)O[C@@H]([C@]2(C)OC(=O)[C@]34CC[C@H]5[C@@H](C[C@H]6O[C@]67[C@@H](O)C=CC(=O)[C@]57C)[C@@H]3CC[C@H]24)C1 (relative stereo) [WITHAPHYSALIN M] | 0.22 (≈ 0.456 µM) | 1 (≈ 2.07 µM) | 1.2 (≈ 2.49 µM)
2 | CC1=C(C)C(=O)O[C@@H]([C@]2(C)OC(=O)[C@]34CC[C@H]5[C@@H](C[C@H]6O[C@]67[C@@H](O)CCC(=O)[C@]57C)[C@@H]3CC[C@H]24)C1 (relative stereo) [WITHAPHYSALIN N] | 9.3 (≈ 19.2 µM) | > 20 | 15 (≈ 31 µM)
3 | CCOC1O[C@@](C)([C@H]2CC(C)=C(C)C(=O)O2)[C@H]2CC[C@H]3[C@@H]4C[C@H]5O[C@]56[C@@H](O)C=CC(=O)[C@]6(C)[C@H]4CC[C@]123 (relative stereo) [WITHAPHYSALIN O] | 0.16 (≈ 0.312 µM) | 0.9 (≈ 1.76 µM) | 1 (≈ 1.95 µM)
